# Reference: PubChem BioAssay (NCI)
#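 Where inhibition never reached the appropriate level, the endpoint shown equals the highest concentration tested. Otherwise, values were interpolated linearly from a five-concentration, 48-hour dose response in 96-well plates. GI50 = concentration required for 50% inhibition of growth. TGI: total growth inhibition.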
# Columns and labels:
# Assay in all cases: NCI tumour cell line growth inhibition, 48 h
# [1] = tested on: ACHN renal
# [2] = tested on: MCF7 breast
# [3] = tested on: NCI-H522 lung
# [4] = tested on: SF-268 CNS
# [5] = tested on: COLO 205 colon
# [6] = tested on: A498 renal
# [7] = tested on: UACC-62 melanoma
# [8] = tested on: OVCAR-5 ovarian
# [9] = tested on: T-47D breast
# [10] = tested on: OVCAR-3 ovarian
# [11] = tested on: CCRF-CEM leukemia
# [12] = tested on: SF-295 CNS
# [13] = tested on: IGROV1 ovarian
# [14] = tested on: UO-31 renal
# [15] = tested on: SNB-19 CNS
# [16] = tested on: OVCAR-8 ovarian
# [17] = tested on: A549 NSCLC
# [18] = tested on: MOLT-4 leukemia
# [19] = tested on: 786-0 renal
# [20] = tested on: EKVX NSCLC
# [21] = tested on: OVCAR-4 ovarian
# [22] = tested on: SW-620 colon
# [23] = tested on: NCI-H226 lung
# [24] = tested on: UACC-257 melanoma
# [25] = tested on: SK-MEL-28 melanoma
# [26] = tested on: K-562 leukemia
# [27] = tested on: SK-OV-3 ovarian
# [28] = tested on: LOX IMVI melanoma
# [29] = tested on: DU-145 prostate
# [30] = tested on: MALME-3M melanoma
# [31] = tested on: SK-MEL-2 melanoma
# [32] = tested on: MDA-MB-435
# [33] = tested on: CAKI-1 renal
# [34] = tested on: M14 melanoma
# [35] = tested on: RXF 393 renal
# [36] = tested on: NCI/ADR-RES ovarian
# [37] = tested on: SN12C renal
# [38] = tested on: HS 578T breast
# [39] = tested on: TK-10 renal
# [40] = tested on: BT-549 breast
# [41] = tested on: HOP-62 NSCLC
# [42] = tested on: SK-MEL-5 melanoma
# [43] = tested on: HCT-15 colon
# [44] = tested on: NCI-H23 lung
# [45] = tested on: U251 CNS
# [46] = tested on: SF-539 CNS
# [47] = tested on: PC-3 prostate
# [48] = tested on: NCI-H460 lung
# [49] = tested on: HT29 colon
# [50] = tested on: HCT-116 colon
# [51] = tested on: MDA-MB-231 breast
# [52] = tested on: SR leukemia
# [53] = tested on: SNB-75 CNS
# [54] = tested on: HL-60(TB) leukemia
# [55] = tested on: HCC-2998 colon
# [56] = tested on: RPMI-8226 leukemia
# [57] = tested on: HOP-92 NSCLC
# [58] = tested on: KM12 colon
structure (smiles),measurement,setting,value
O=C(Nc1ncc(Cc2cccc(C(F)(F)F)c2)s1)c1ccc2c(c1)OCCO2,GI50,[1],580 nM
same,TGI,[1],> 100000 nM
same,GI50,[2],175 nM
same,TGI,[2],> 100000 nM
same,GI50,[3],196 nM
same,GI50,[4],1130 nM
same,TGI,[4],> 100000 nM
same,GI50,[5],282 nM
same,TGI,[5],1540 nM
same,GI50,[6],48.4 nM
same,TGI,[6],442 nM
same,GI50,[7],372 nM
same,TGI,[7],> 100000 nM
same,GI50,[8],617 nM
same,TGI,[8],> 100000 nM
same,GI50,[9],606 nM
same,TGI,[9],> 100000 nM
same,GI50,[10],223 nM
same,TGI,[10],629 nM
same,GI50,[11],411 nM
same,TGI,[11],> 100000 nM
same,GI50,[12],244 nM
same,TGI,[12],1840 nM
same,GI50,[13],400 nM
same,TGI,[13],> 100000 nM
same,GI50,[14],1090 nM
same,TGI,[14],> 100000 nM
same,GI50,[15],506 nM
same,TGI,[15],> 68400 nM
same,GI50,[16],485 nM
same,TGI,[16],> 100000 nM
same,GI50,[17],451 nM
same,TGI,[17],> 100000 nM
same,GI50,[18],670 nM
same,TGI,[18],> 100000 nM
same,GI50,[19],576 nM
same,TGI,[19],> 100000 nM
same,GI50,[20],602 nM
same,TGI,[20],> 100000 nM
same,GI50,[21],608 nM
same,TGI,[21],> 100000 nM
same,GI50,[22],352 nM
same,TGI,[22],> 100000 nM
same,GI50,[23],827 nM
same,GI50,[24],5870 nM
same,TGI,[24],> 100000 nM
same,GI50,[25],1540 nM
same,TGI,[25],> 100000 nM
same,GI50,[26],159 nM
same,TGI,[26],> 100000 nM
same,GI50,[27],746 nM
same,TGI,[27],46600 nM
same,GI50,[28],565 nM
same,TGI,[28],> 100000 nM
same,GI50,[29],350 nM
same,TGI,[29],14800 nM
same,GI50,[30],569 nM
same,TGI,[30],> 60900 nM
same,GI50,[31],943 nM
same,TGI,[31],> 48600 nM
same,GI50,[32],35.2 nM
same,TGI,[32],172 nM
same,GI50,[33],141 nM
same,TGI,[33],> 45900 nM
same,GI50,[34],224 nM
same,TGI,[34],> 48800 nM
same,GI50,[35],232 nM
same,TGI,[35],783 nM
same,GI50,[36],251 nM
same,TGI,[36],6960 nM
same,GI50,[37],592 nM
same,TGI,[37],> 100000 nM
same,GI50,[38],306 nM
same,TGI,[38],> 66400 nM
same,GI50,[39],892 nM
same,TGI,[39],> 39200 nM
same,GI50,[40],449 nM
same,TGI,[40],> 100000 nM
same,GI50,[41],615 nM
same,TGI,[41],> 40900 nM
same,GI50,[42],281 nM
same,TGI,[42],2360 nM
same,GI50,[43],139 nM
same,TGI,[43],> 100000 nM
same,GI50,[44],474 nM
same,TGI,[44],> 57600 nM
same,GI50,[45],385 nM
same,TGI,[45],> 48200 nM
same,GI50,[46],251 nM
same,TGI,[46],916 nM
same,GI50,[47],341 nM
same,TGI,[47],> 100000 nM
same,GI50,[48],349 nM
same,TGI,[48],> 38200 nM
same,GI50,[49],498 nM
same,TGI,[49],> 35200 nM
same,GI50,[50],320 nM
same,TGI,[50],> 100000 nM
same,GI50,[51],445 nM
same,TGI,[51],29700 nM
same,GI50,[52],210 nM
same,TGI,[52],> 100000 nM
same,GI50,[53],185 nM
same,TGI,[53],7170 nM
same,GI50,[54],340 nM
same,TGI,[54],> 100000 nM
same,GI50,[55],337 nM
same,TGI,[55],17500 nM
same,GI50,[56],483 nM
same,TGI,[56],> 100000 nM
same,GI50,[57],2970 nM
same,TGI,[57],> 72200 nM
same,GI50,[58],196 nM
same,TGI,[58],> 100000 nM
